Test results: patent publication US5250683A, “Certain substituted taxanes and pharmaceutical compositions containing them” (Florida State University, priority 1992, dated 1993)

These compounds were tested on tubulin (assay: Tubulin binding assay (Tubulin Assay), method of Parness et al.). Conditions: compared to taxol and taxotere.

First: CC(=O)O[C@H]1C(=O)[C@@]2(C)[C@H]([C@H](OC(=O)c3ccccc3)[C@]3(O)C[C@H](OC(=O)[C@H](O)[C@@H](NC(=O)c4ccc(Br)cc4)c4ccc(Cl)cc4)C(C)=C1C3(C)C)[C@]1(OC(C)=O)CO[C@@H]1C[C@@H]2O [Example 25, N-debenzoyl-N-(4-bromobenzoyl)-3'-desphenyl-3'-(4-chlorophenyl) taxol]
Second: COc1ccc([C@H](NC(=O)c2ccc(Cl)cc2)[C@@H](O)C(=O)O[C@H]2C[C@@]3(O)[C@@H](OC(=O)c4ccccc4)[C@@H]4[C@]5(OC(C)=O)CO[C@@H]5C[C@H](O)[C@@]4(C)C(=O)[C@H](OC(C)=O)C(=C2C)C3(C)C)cc1 [Example 29, N-debenzoyl-N-(4-chlorobenzoyl)-3'-desphenyl-3'-(4-methoxyphenyl) taxol]
The “Tubulin Assay Init. Peak” value of the first is higher: 60 for the first, 42 for the second.

First: CC(=O)O[C@H]1C(=O)[C@@]2(C)[C@H]([C@H](OC(=O)c3ccccc3)[C@]3(O)C[C@H](OC(=O)[C@H](O)[C@@H](NC(=O)c4ccc(C(C)(C)C)cc4)c4ccc(Cl)cc4)C(C)=C1C3(C)C)[C@]1(OC(C)=O)CO[C@@H]1C[C@@H]2O [Example 26, N-debenzoyl-N-(4-t-butylbenzoyl)-3'-desphenyl-3'-(4-chlorophenyl) taxol]
Second: CC(=O)O[C@H]1C(=O)[C@@]2(C)[C@H]([C@H](OC(=O)c3ccccc3)[C@]3(O)C[C@H](OC(=O)[C@H](O)[C@@H](NC(=O)c4ccc(C(C)(C)C)cc4)c4ccc(F)cc4)C(C)=C1C3(C)C)[C@]1(OC(C)=O)CO[C@@H]1C[C@@H]2O [Example 27, N-debenzoyl-N-(4-t-butylbenzoyl)-3'-desphenyl-3'-(4-fluorophenyl) taxol]
The “Tubulin Assay Init. Peak” value of the first is lower: 13 for the first, 55 for the second.

First: COc1ccc(C(=O)N[C@@H](c2ccc(F)cc2)[C@@H](O)C(=O)O[C@H]2C[C@@]3(O)[C@@H](OC(=O)c4ccccc4)[C@@H]4[C@]5(OC(C)=O)CO[C@@H]5C[C@H](O)[C@@]4(C)C(=O)[C@H](OC(C)=O)C(=C2C)C3(C)C)cc1 [Example 28, N-debenzoyl-N-(4-methoxybenzoyl)-3'-desphenyl-3'-(4-fluorophenyl) taxol]
Second: COc1ccc([C@H](NC(=O)c2ccc(Br)cc2)[C@@H](O)C(=O)O[C@H]2C[C@@]3(O)[C@@H](OC(=O)c4ccccc4)[C@@H]4[C@]5(OC(C)=O)CO[C@@H]5C[C@H](O)[C@@]4(C)C(=O)[C@H](OC(C)=O)C(=C2C)C3(C)C)cc1 [Example 30, N-debenzoyl-N-(4-bromobenzoyl)-3'-desphenyl-3'-(4-methoxyphenyl) taxol]
The “Tubulin Assay Init. Peak” value of the first is higher: 106 for the first, 44 for the second.

Going from `COc1ccc([C@H](NC(=O)c2ccc(C(C)(C)C)cc2)[C@@H](O)C(=O)O[C@H]2C[C@@]3(O)[C@@H](OC(=O)c4ccccc4)[C@@H]4[C@]5(OC(C)=O)CO[C@@H]5C[C@H](O)[C@@]4(C)C(=O)[C@H](OC(C)=O)C(=C2C)C3(C)C)cc1` [Example 31, N-debenzoyl-N-(4-t-butylbenzoyl)-3'-desphenyl-3'-(4-methoxyphenyl) taxol] to `COc1ccc(C(=O)N[C@@H](c2ccc(OC)cc2)[C@@H](O)C(=O)O[C@H]2C[C@@]3(O)[C@@H](OC(=O)c4ccccc4)[C@@H]4[C@]5(OC(C)=O)CO[C@@H]5C[C@H](O)[C@@]4(C)C(=O)[C@H](OC(C)=O)C(=C2C)C3(C)C)cc1` [Example 32, N-debenzoyl-N-(4-methoxybenzoyl)-3'-desphenyl-3'-(4-methoxyphenyl) taxol], the “Tubulin Assay Init. Peak” value rises from 24 to 51.

`CC(=O)O[C@H]1C(=O)[C@@]2(C)[C@H]([C@H](OC(=O)c3ccccc3)[C@]3(O)C[C@H](OC(=O)[C@H](O)[C@@H](NC(=O)c4ccccc4)c4ccccc4)C(C)=C1C3(C)C)[C@]1(OC(C)=O)CO[C@@H]1C[C@@H]2O` [Taxol, taxol, reference compound] and `CC(=O)O[C@@]12CO[C@@H]1C[C@H](O)[C@@]1(C)C(=O)[C@H](O)C3=C(C)[C@@H](OC(=O)[C@H](O)[C@@H](NC(=O)OC(C)(C)C)c4ccccc4)C[C@@](O)([C@@H](OC(=O)c4ccccc4)[C@H]21)C3(C)C` [Taxotere, taxotere, reference compound] are the same in “Tubulin Assay Init. Peak” value: 100 for the first, 100 for the second.

First: CC(=O)O[C@H]1C(=O)[C@@]2(C)[C@H]([C@H](OC(=O)c3ccccc3)[C@]3(O)C[C@H](OC(=O)[C@H](O)[C@@H](NC(=O)c4ccc(Br)cc4)c4ccc(Cl)cc4)C(C)=C1C3(C)C)[C@]1(OC(C)=O)CO[C@@H]1C[C@@H]2O [Example 25, N-debenzoyl-N-(4-bromobenzoyl)-3'-desphenyl-3'-(4-chlorophenyl) taxol]
Second: COc1ccc([C@H](NC(=O)c2ccc(Cl)cc2)[C@@H](O)C(=O)O[C@H]2C[C@@]3(O)[C@@H](OC(=O)c4ccccc4)[C@@H]4[C@]5(OC(C)=O)CO[C@@H]5C[C@H](O)[C@@]4(C)C(=O)[C@H](OC(C)=O)C(=C2C)C3(C)C)cc1 [Example 29, N-debenzoyl-N-(4-chlorobenzoyl)-3'-desphenyl-3'-(4-methoxyphenyl) taxol]
The “Tubulin Assay Rel. Rate” value of the first is higher: 83 for the first, 72 for the second.

Compared with `CC(=O)O[C@H]1C(=O)[C@@]2(C)[C@H]([C@H](OC(=O)c3ccccc3)[C@]3(O)C[C@H](OC(=O)[C@H](O)[C@@H](NC(=O)c4ccc(C(C)(C)C)cc4)c4ccc(Cl)cc4)C(C)=C1C3(C)C)[C@]1(OC(C)=O)CO[C@@H]1C[C@@H]2O` [Example 26, N-debenzoyl-N-(4-t-butylbenzoyl)-3'-desphenyl-3'-(4-chlorophenyl) taxol], `CC(=O)O[C@H]1C(=O)[C@@]2(C)[C@H]([C@H](OC(=O)c3ccccc3)[C@]3(O)C[C@H](OC(=O)[C@H](O)[C@@H](NC(=O)c4ccc(C(C)(C)C)cc4)c4ccc(F)cc4)C(C)=C1C3(C)C)[C@]1(OC(C)=O)CO[C@@H]1C[C@@H]2O` [Example 27, N-debenzoyl-N-(4-t-butylbenzoyl)-3'-desphenyl-3'-(4-fluorophenyl) taxol] is higher in “Tubulin Assay Rel. Rate” value: 23 for the first, 82 for the second.

Compared with `COc1ccc(C(=O)N[C@@H](c2ccc(F)cc2)[C@@H](O)C(=O)O[C@H]2C[C@@]3(O)[C@@H](OC(=O)c4ccccc4)[C@@H]4[C@]5(OC(C)=O)CO[C@@H]5C[C@H](O)[C@@]4(C)C(=O)[C@H](OC(C)=O)C(=C2C)C3(C)C)cc1` [Example 28, N-debenzoyl-N-(4-methoxybenzoyl)-3'-desphenyl-3'-(4-fluorophenyl) taxol], `COc1ccc([C@H](NC(=O)c2ccc(Br)cc2)[C@@H](O)C(=O)O[C@H]2C[C@@]3(O)[C@@H](OC(=O)c4ccccc4)[C@@H]4[C@]5(OC(C)=O)CO[C@@H]5C[C@H](O)[C@@]4(C)C(=O)[C@H](OC(C)=O)C(=C2C)C3(C)C)cc1` [Example 30, N-debenzoyl-N-(4-bromobenzoyl)-3'-desphenyl-3'-(4-methoxyphenyl) taxol] is lower in “Tubulin Assay Rel. Rate” value: 97 for the first, 70 for the second.

First: COc1ccc([C@H](NC(=O)c2ccc(C(C)(C)C)cc2)[C@@H](O)C(=O)O[C@H]2C[C@@]3(O)[C@@H](OC(=O)c4ccccc4)[C@@H]4[C@]5(OC(C)=O)CO[C@@H]5C[C@H](O)[C@@]4(C)C(=O)[C@H](OC(C)=O)C(=C2C)C3(C)C)cc1 [Example 31, N-debenzoyl-N-(4-t-butylbenzoyl)-3'-desphenyl-3'-(4-methoxyphenyl) taxol]
Second: COc1ccc(C(=O)N[C@@H](c2ccc(OC)cc2)[C@@H](O)C(=O)O[C@H]2C[C@@]3(O)[C@@H](OC(=O)c4ccccc4)[C@@H]4[C@]5(OC(C)=O)CO[C@@H]5C[C@H](O)[C@@]4(C)C(=O)[C@H](OC(C)=O)C(=C2C)C3(C)C)cc1 [Example 32, N-debenzoyl-N-(4-methoxybenzoyl)-3'-desphenyl-3'-(4-methoxyphenyl) taxol]
The “Tubulin Assay Rel. Rate” value of the first is lower: 44 for the first, 81 for the second.

`CC(=O)O[C@H]1C(=O)[C@@]2(C)[C@H]([C@H](OC(=O)c3ccccc3)[C@]3(O)C[C@H](OC(=O)[C@H](O)[C@@H](NC(=O)c4ccccc4)c4ccccc4)C(C)=C1C3(C)C)[C@]1(OC(C)=O)CO[C@@H]1C[C@@H]2O` [Taxol, taxol, reference compound] was tested, and the “Tubulin Assay Rel. Rate” value was 98.
